In ChEMBL document CHEMBL1201861, “Genomics of Drug Sensitity in Cancer screening data, Wellcome Trust Sanger Institute”:

Key:
Test in all cases: cells
[1] = system: KNS-42; type: functional, cell-based, Homo sapiens; conditions: Homo sapiens, KNS-42;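 note: growth inhibition of KNS-42 cells, read out with a cell viability assay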
Description: SANGER: Inhibition of human KNS-42 cell growth in a cell viability assay.

[2] = system: LS-123; type: functional, cell-based, Homo sapiens; conditions: Homo sapiens, LS-123
Description: SANGER: Inhibition of human LS-123 cell growth in a cell viability assay.

[3] = system: HCC 2998; type: functional, cell-based, Homo sapiens; conditions: Homo sapiens, HCC 2998;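 note: growth inhibition of human HCC2998 cells, measured with a cell viability read-out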
Description: SANGER: Inhibition of human HCC2998 cell growth in a cell viability assay.

[4] = system: GOTO; type: functional, cell-based, Homo sapiens; conditions: Homo sapiens, GOTO;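 note: growth inhibition of GOTO cells, read out by a cell viability assay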
Description: SANGER: Inhibition of human GOTO cell growth in a cell viability assay.

[5] = system: NCI-H1648; type: functional, cell-based, Homo sapiens; conditions: Homo sapiens, NCI-H1648;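 note: cell viability assay measuring inhibition of NCI-H1648 cell growth, from the Sanger screening data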
Description: SANGER: Inhibition of human NCI-H1648 cell growth in a cell viability assay.

[6] = system: HDLM-2; type: functional, cell-based, Homo sapiens; conditions: Homo sapiens, HDLM-2;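 note: cell viability assay measuring suppression of HDLM-2 proliferation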
Description: SANGER: Inhibition of human HDLM-2 cell growth in a cell viability assay.

[7] = system: ES5; type: functional, cell-based, Homo sapiens; conditions: Homo sapiens, ES5;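 note: growth inhibition of human ES5 cells, read out by a cell viability assay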
Description: SANGER: Inhibition of human ES5 cell growth in a cell viability assay.

[8] = system: DEL; type: functional, cell-based, Homo sapiens; conditions: Homo sapiens, DEL;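 note: growth inhibition of the human DEL cell line, read out with a cell viability assay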
Description: SANGER: Inhibition of human DEL cell growth in a cell viability assay.

[9] = system: OMC-1; type: functional, cell-based, Homo sapiens; conditions: Homo sapiens, OMC-1;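 note: growth inhibition of the OMC-1 cell line, measured by a cell viability assay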
Description: SANGER: Inhibition of human OMC-1 cell growth in a cell viability assay.

[10] = system: EW-1; type: functional, cell-based, Homo sapiens; conditions: Homo sapiens, EW-1;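 note: growth inhibition of the human EW-1 cell line, read out by a cell viability assay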
Description: SANGER: Inhibition of human EW-1 cell growth in a cell viability assay.

[11] = system: NCI-H510A; type: functional, cell-based, Homo sapiens; conditions: Homo sapiens, NCI-H510A;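 note: growth inhibition of NCI-H510A cells, read out with a cell viability assay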
Description: SANGER: Inhibition of human NCI-H510A cell growth in a cell viability assay.

[12] = system: ACN; type: functional, cell-based, Homo sapiens; conditions: Homo sapiens, ACN;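 note: growth inhibition of the human ACN cell line, read out via cell viability testing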
Description: SANGER: Inhibition of human ACN cell growth in a cell viability assay.

[13] = system: NCI-H446; type: functional, cell-based, Homo sapiens; conditions: Homo sapiens, NCI-H446;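 note: growth inhibition of NCI-H446 cells determined by a cell viability assay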
Description: SANGER: Inhibition of human NCI-H446 cell growth in a cell viability assay.

[14] = system: NCI-H720; type: functional, cell-based, Homo sapiens; conditions: Homo sapiens, NCI-H720;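 note: growth inhibition of human NCI-H720 cells determined by a cell viability assay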
Description: SANGER: Inhibition of human NCI-H720 cell growth in a cell viability assay.

[15] = system: no-10; type: functional, cell-based, Homo sapiens; conditions: Homo sapiens;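 note: growth inhibition of no-10 cells, read out with a cell viability assay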
Description: SANGER: Inhibition of human no-10 cell growth in a cell viability assay.

[16] = system: LU-139; type: functional, cell-based, Homo sapiens; conditions: Homo sapiens, LU-139
Description: SANGER: Inhibition of human LU-139 cell growth in a cell viability assay.

[17] = system: EKVX; type: functional, cell-based, Homo sapiens; conditions: Homo sapiens, EKVX;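 note: growth inhibition of human EKVX cells, read out with a cell viability assay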
Description: SANGER: Inhibition of human EKVX cell growth in a cell viability assay.

[18] = system: SHP77; type: functional, cell-based, Homo sapiens, SHP-77; conditions: Homo sapiens, SHP77;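 note: growth inhibition of human SHP-77 cells measured by a cell viability assay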
Description: SANGER: Inhibition of human SHP-77 cell growth in a cell viability assay.

[19] = system: MFH-ino; type: functional, cell-based, Homo sapiens; conditions: Homo sapiens, MFH-ino;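 note: growth inhibition of human MFH-ino cells, read out by a cell viability assay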
Description: SANGER: Inhibition of human MFH-ino cell growth in a cell viability assay.

[20] = system: L-363; type: functional, cell-based, Homo sapiens; conditions: Homo sapiens, L-363
Description: SANGER: Inhibition of human L-363 cell growth in a cell viability assay.

[21] = system: SK-MEL-2; type: functional, cell-based, Homo sapiens; conditions: Homo sapiens, SK-MEL-2;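 note: growth inhibition of human SK-MEL-2 cells measured with a cell viability assay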
Description: SANGER: Inhibition of human SK-MEL-2 cell growth in a cell viability assay.

[22] = system: GI-1; type: functional, cell-based, Homo sapiens; conditions: Homo sapiens, GI-1;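 note: growth inhibition of human GI-1 cells, measured with a cell viability readout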
Description: SANGER: Inhibition of human GI-1 cell growth in a cell viability assay.

[23] = system: NCI-N87; type: functional, cell-based, Homo sapiens; conditions: Homo sapiens, NCI-N87;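 note: growth inhibition of human NCI-N87 cells, read out with a cell viability assay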
Description: SANGER: Inhibition of human NCI-N87 cell growth in a cell viability assay.

[24] = system: SW872; type: functional, cell-based, Homo sapiens; conditions: Homo sapiens, SW872;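 note: growth inhibition of SW872 cells, read out by a viability assay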
Description: SANGER: Inhibition of human SW872 cell growth in a cell viability assay.

[25] = system: OS-RC-2; type: functional, cell-based, Homo sapiens; conditions: Homo sapiens, OS-RC-2;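 note: growth inhibition of human OS-RC-2 cells, measured by a cell viability assay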
Description: SANGER: Inhibition of human OS-RC-2 cell growth in a cell viability assay.

[26] = system: JAR; type: functional, cell-based, Homo sapiens; conditions: Homo sapiens, JAR;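 note: growth inhibition of human JAR cells determined with a cell viability assay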
Description: SANGER: Inhibition of human JAR cell growth in a cell viability assay.

[27] = system: SK-N-DZ; type: functional, cell-based, Homo sapiens; conditions: Homo sapiens, SK-N-DZ;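 note: growth inhibition of the cancer cell line, read out through a viability assay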
Description: SANGER: Inhibition of human SK-N-DZ cell growth in a cell viability assay.

[28] = system: HuTu80; type: functional, cell-based, Homo sapiens, HUTU-80; conditions: Homo sapiens, HuTu80;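 note: growth inhibition of HuTu80 human cells, determined with a cell viability readout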
Description: SANGER: Inhibition of human HUTU-80 cell growth in a cell viability assay.

[29] = system: GAK; type: functional, cell-based, Homo sapiens; conditions: Homo sapiens, GAK;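 note: cell growth inhibition read out by a cell viability assay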
Description: SANGER: Inhibition of human GAK cell growth in a cell viability assay.

[30] = system: JVM-3; type: functional, cell-based, Homo sapiens; conditions: Homo sapiens, JVM-3;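 note: growth inhibition of human JVM-3 cells, read out with a cell viability assay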
Description: SANGER: Inhibition of human JVM-3 cell growth in a cell viability assay.

[31] = system: NEC8; type: functional, cell-based, Homo sapiens; conditions: Homo sapiens, NEC8;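 note: growth inhibition of human NEC8 cells, read out by a cell viability assay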
Description: SANGER: Inhibition of human NEC8 cell growth in a cell viability assay.

[32] = system: CTB-1; type: functional, cell-based, Homo sapiens; conditions: Homo sapiens, CTB-1
Description: SANGER: Inhibition of human CTB-1 cell growth in a cell viability assay.

[33] = system: TE-12; type: functional, cell-based, Homo sapiens; conditions: Homo sapiens, TE-12;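 note: growth inhibition of TE-12 cells, read out by a cell viability assay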
Description: SANGER: Inhibition of human TE-12 cell growth in a cell viability assay.

[34] = system: MZ7-mel; type: functional, cell-based, Homo sapiens; conditions: Homo sapiens, MZ7-mel;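 note: growth inhibition of human MZ7-mel cells, measured by a cell viability assay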
Description: SANGER: Inhibition of human MZ7-mel cell growth in a cell viability assay.

[35] = system: NTERA-2-cl-D1; type: functional, cell-based, Homo sapiens; conditions: Homo sapiens, NTERA-2-cl-D1;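 note: inhibition of cell growth, measured with a cell viability assay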
Description: SANGER: Inhibition of human NTERA-S-cl-D1 cell growth in a cell viability assay.

[36] = system: DB; type: functional, cell-based, Homo sapiens; conditions: Homo sapiens, DB
Description: SANGER: Inhibition of human DB cell growth in a cell viability assay.

[37] = system: IST-MES1; type: functional, cell-based, Homo sapiens; conditions: Homo sapiens, IST-MES1;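 note: growth inhibition of IST-MES1 cells, measured with a cell viability assay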
Description: SANGER: Inhibition of human IST-MES1 cell growth in a cell viability assay.

[38] = system: MFM-223; type: functional, cell-based, Homo sapiens; conditions: Homo sapiens, MFM-223
Description: SANGER: Inhibition of human MFM-223 cell growth in a cell viability assay.

[39] = system: KINGS-1; type: functional, cell-based, Homo sapiens; conditions: Homo sapiens, KINGS-1;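 note: cell viability assay measuring suppression of KINGS-1 cell growth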
Description: SANGER: Inhibition of human KINGS-1 cell growth in a cell viability assay.

[40] = system: MOLT-16; type: functional, cell-based, Homo sapiens; conditions: Homo sapiens, MOLT-16;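 note: growth inhibition of human MOLT-16 cells, read out with a cell viability assay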
Description: SANGER: Inhibition of human MOLT-16 cell growth in a cell viability assay.

[41] = system: D-247MG; type: functional, cell-based, Homo sapiens; conditions: Homo sapiens, D-247MG
Description: SANGER: Inhibition of human D-247MG cell growth in a cell viability assay.

[42] = system: OCI-AML2; type: functional, cell-based, Homo sapiens; conditions: Homo sapiens, OCI-AML2;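 note: growth inhibition of OCI-AML2 cells, read out with a cell viability assay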
Description: SANGER: Inhibition of human OCI-AML2 cell growth in a cell viability assay.

[43] = system: A388; type: functional, cell-based, Homo sapiens; conditions: Homo sapiens, A388;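 note: growth inhibition of human A388 cells, read out with a cell viability assay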
Description: SANGER: Inhibition of human A388 cell growth in a cell viability assay.

[44] = system: MEG-01; type: functional, cell-based, Homo sapiens; conditions: Homo sapiens, MEG-01;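 note: growth inhibition of MEG-01 cells, read out by a cell viability assay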
Description: SANGER: Inhibition of human MEG-01 cell growth in a cell viability assay.

[45] = system: NCI-H226; type: functional, cell-based, Homo sapiens; conditions: Homo sapiens, NCI-H226;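 note: cell viability read-out used to gauge growth inhibition of the cells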
Description: SANGER: Inhibition of human NCI-H226 cell growth in a cell viability assay.

[46] = system: LC-2-ad; type: functional, cell-based, Homo sapiens; conditions: Homo sapiens, LC-2-ad;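 note: growth inhibition of human LC-2-ad cells, read out with a cell viability assay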
Description: SANGER: Inhibition of human LC-2-ad cell growth in a cell viability assay.

[47] = system: MZ2-MEL; type: functional, cell-based, Homo sapiens; conditions: Homo sapiens, MZ2-MEL;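 note: growth inhibition of MZ2-MEL cells read out with a cell viability assay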
Description: SANGER: Inhibition of human MZ2-MEL cell growth in a cell viability assay.

[48] = system: COLO-320-HSR; type: functional, cell-based, Homo sapiens; conditions: Homo sapiens, COLO-320-HSR;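 note: growth inhibition of COLO-320-HSR cells, determined with a cell viability assay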
Description: SANGER: Inhibition of human COLO-320-HSR cell growth in a cell viability assay.

[49] = system: UACC-257; type: functional, cell-based, Homo sapiens; conditions: Homo sapiens, UACC-257
Description: SANGER: Inhibition of human UACC-257 cell growth in a cell viability assay.

CO[C@H]1C[C@@H]2CC[C@@H](C)[C@@](O)(O2)C(=O)C(=O)N2CCCC[C@H]2C(=O)O[C@H]([C@H](C)C[C@@H]2CC[C@@H](OC(=O)C(C)(CO)CO)[C@H](OC)C2)CC(=O)[C@H](C)/C=C(\C)[C@@H](O)[C@@H](OC)C(=O)[C@H](C)C[C@H](C)/C=C/C=C/C=C/1C [TEMSIROLIMUS]
IC50 [1]: > 200 nM | IC50 [2]: > 200 nM | IC50 [3]: > 200 nM | IC50 [4]: > 200 nM | IC50 [5]: 182 nM | IC50 [6]: > 200 nM | IC50 [7]: 61.4 nM | IC50 [8]: 5.46 nM | IC50 [9]: > 200 nM | IC50 [10]: > 200 nM | IC50 [11]: > 200 nM | IC50 [12]: 13 nM | IC50 [13]: > 200 nM | IC50 [14]: 9.62 nM | IC50 [15]: > 200 nM | IC50 [16]: 53.3 nM | IC50 [17]: > 200 nM | IC50 [18]: > 200 nM | IC50 [19]: > 200 nM | IC50 [20]: 0.242 nM | IC50 [21]: > 200 nM | IC50 [22]: 107 nM | IC50 [23]: 175 nM | IC50 [24]: > 200 nM | IC50 [25]: 17 nM | IC50 [26]: > 200 nM | IC50 [27]: > 200 nM | IC50 [28]: > 200 nM | IC50 [29]: > 200 nM | IC50 [30]: 3.95 nM | IC50 [31]: > 200 nM | IC50 [32]: 2.93 nM | IC50 [33]: > 200 nM | IC50 [34]: 161 nM | IC50 [35]: 20.7 nM | IC50 [36]: 3.12 nM | IC50 [37]: > 200 nM | IC50 [38]: > 200 nM | IC50 [39]: > 200 nM | IC50 [40]: 12.8 nM | IC50 [41]: > 200 nM | IC50 [42]: > 200 nM | IC50 [43]: > 200 nM | IC50 [44]: 88.2 nM | IC50 [45]: > 200 nM | IC50 [46]: > 200 nM | IC50 [47]: 56.9 nM | IC50 [48]: > 200 nM | IC50 [49]: > 200 nM

Nc1cccc2c1CN(C1CCC(=O)NC1=O)C2=O (configuration not stated) [LENALIDOMIDE]
IC50 [1]: > 5000 nM | IC50 [2]: > 5000 nM | IC50 [3]: > 5000 nM | IC50 [4]: > 5000 nM | IC50 [5]: > 5000 nM | IC50 [6]: > 5000 nM | IC50 [7]: > 5000 nM | IC50 [8]: > 5000 nM | IC50 [9]: > 5000 nM | IC50 [10]: > 5000 nM | IC50 [11]: > 5000 nM | IC50 [12]: > 5000 nM | IC50 [13]: > 5000 nM | IC50 [14]: > 5000 nM | IC50 [15]: > 5000 nM | IC50 [16]: > 5000 nM | IC50 [17]: > 5000 nM | IC50 [18]: > 5000 nM | IC50 [19]: > 5000 nM | IC50 [20]: 2920 nM | IC50 [21]: > 5000 nM | IC50 [22]: > 5000 nM | IC50 [23]: > 5000 nM | IC50 [24]: > 5000 nM | IC50 [25]: > 5000 nM | IC50 [26]: 2970 nM | IC50 [27]: > 5000 nM | IC50 [28]: > 5000 nM | IC50 [29]: > 5000 nM | IC50 [30]: > 5000 nM | IC50 [31]: > 5000 nM | IC50 [32]: > 5000 nM | IC50 [33]: > 5000 nM | IC50 [34]: > 5000 nM | IC50 [35]: > 5000 nM | IC50 [36]: > 5000 nM | IC50 [37]: > 5000 nM | IC50 [38]: > 5000 nM | IC50 [39]: > 5000 nM | IC50 [40]: > 5000 nM | IC50 [41]: > 5000 nM | IC50 [42]: > 5000 nM | IC50 [43]: > 5000 nM | IC50 [44]: > 5000 nM | IC50 [45]: > 5000 nM | IC50 [46]: > 5000 nM | IC50 [47]: > 5000 nM | IC50 [48]: > 5000 nM | IC50 [49]: > 5000 nM

Cc1cn(-c2cc(NC(=O)c3ccc(C)c(Nc4nccc(-c5cccnc5)n4)c3)cc(C(F)(F)F)c2)cn1 [NILOTINIB]
IC50 [1]: > 2000 nM | IC50 [2]: > 2000 nM | IC50 [3]: > 2000 nM | IC50 [4]: > 2000 nM | IC50 [5]: > 2000 nM | IC50 [6]: > 2000 nM | IC50 [7]: > 2000 nM | IC50 [8]: > 2000 nM | IC50 [9]: > 2000 nM | IC50 [10]: > 2000 nM | IC50 [11]: > 2000 nM | IC50 [12]: 1550 nM | IC50 [13]: > 2000 nM | IC50 [14]: > 2000 nM | IC50 [15]: > 2000 nM | IC50 [16]: > 2000 nM | IC50 [17]: > 2000 nM | IC50 [18]: > 2000 nM | IC50 [19]: > 2000 nM | IC50 [20]: > 2000 nM | IC50 [21]: > 2000 nM | IC50 [22]: > 2000 nM | IC50 [23]: > 2000 nM | IC50 [24]: > 2000 nM | IC50 [25]: > 2000 nM | IC50 [26]: > 2000 nM | IC50 [27]: > 2000 nM | IC50 [28]: > 2000 nM | IC50 [29]: > 2000 nM | IC50 [30]: > 2000 nM | IC50 [31]: > 2000 nM | IC50 [32]: > 2000 nM | IC50 [33]: > 2000 nM | IC50 [34]: > 2000 nM | IC50 [35]: > 2000 nM | IC50 [36]: > 2000 nM | IC50 [37]: > 2000 nM | IC50 [38]: > 2000 nM | IC50 [39]: > 2000 nM | IC50 [40]: > 2000 nM | IC50 [41]: > 2000 nM | IC50 [42]: > 2000 nM | IC50 [43]: > 2000 nM | IC50 [44]: 8.28 nM | IC50 [45]: > 2000 nM | IC50 [46]: > 2000 nM | IC50 [47]: > 2000 nM | IC50 [48]: > 2000 nM | IC50 [49]: > 2000 nM
